According to US20170205395A1, “METHODS FOR PROVIDING PERSONALIZED MEDICINE TEST EX VIVO FOR HEMATOLOGICAL NEOPLASMS” (priority 2009, published 2017):
Like-named read-outs stand apart in the source and are kept apart here.

Legend:
malignant CLL cells = assay type: cell-based; settings: for ex vivo efficacy in killing malignant cells compared with approved cytotoxic drugs: CLL ex vivo samples, FIG. 6; for induction of apoptosis after 24 hours: CLL whole blood samples, 24 hours incubation, FIG. 8; for ex vivo patient response: 30 μM; for ability of SSRIs to induce apoptosis in malignant CLL cells: FIG. 9
[1] = system: patients with Chronic Lymphocytic Leukemia; settings: cited from earlier work
T and NK cells = assay: Ex vivo Annexin V flow cytometry apoptosis assay in CLL whole blood, non-malignant cells; assay type: cell-based, human; settings: approximately 30 μM, whole blood sample from a CLL patient, FIG. 7
[2] = system: active caspase-3 in MOLT-4 cells; assay: Active caspase-3 determination by Western blot; assay type: cell-based, human; settings: 24 hours, FIG. 21
Description: Caspase-3 activation was determined using a Western blot of extracts from two acute lymphoblastic cell lines (TOM-1 and MOLT-4) exposed to increased concentrations of sertraline. […] Active caspase-3 is a protease that serves as a marker of apoptosis.

MOLT-4 cells = assay: Apoptosis ELISA (one step sandwich ELISA of histone-complexed DNA fragments); assay type: cell-based, human; settings: 24 hours, FIG. 20
Text: The one step sandwich ELISA is based in the quantification of histone-complexed DNA fragments (mono- and oligonucleosomes) out of the cytoplasm of cells after the induction of apoptosis or when released from necrotic cells.

[3] = CLL sample, maximum concentrations, cyclophosphamide tested as its metabolite maphosphamide, FIG. 22

## COc1ccc(CCN2CCC(Nc3nc4ccccc4n3Cc3ccc(F)cc3)CC2)cc1 [astemizole]
Malignant CLL cells
  ex vivo efficacy in killing malignant cells compared with approved cytotoxic drugs: ex vivo efficacy similar to that of the approved cytotoxic drugs

## O=C(O)CCCc1ccc(N(CCCl)CCCl)cc1 [chlorambucil]
Malignant CLL cells; CLL patient sample, low concentrations, lower curve of FIG. 11
  induction of apoptosis by the drug alone: did not induce much apoptosis
Malignant CLL cells
  induction of apoptosis after 24 hours: ~45%
[1]; CLL patients with ITRT result DI (Drug Intermediate)
  % of patients responding: 66.3 (92) %
[1]; CLL patients with ITRT result DR (Drug Resistant)
  % of patients responding: 37.6 (24) %
[1]; CLL patients with ITRT result DS (Drug Sensitive)
  % of patients responding: 85.1 (94) %
[1]; all CLL patients (Total)
  % of patients responding: 71.5 (210) %

## O=P1(N(CCCl)CCCl)NCCCO1 (centres unmarked) [cyclophosphamide]
Malignant CLL cells
  ex vivo efficacy (resistant / sensitive): resistant

## COc1cccc2c1C(=O)c1c(O)c3c(c(O)c1C2=O)C[C@@](O)(C(=O)CO)C[C@@H]3O[C@H]1C[C@H](N)[C@H](O)[C@H](C)O1 [doxorubicin]
Malignant CLL cells; the two patients denoted by a star, FIG. 4
  ex vivo patient response: very effective

## Nc1nc(F)nc2c1ncn2[C@@H]1O[C@H](CO)[C@@H](O)[C@@H]1O [fludarabine]
Malignant CLL cells
  induction of apoptosis after 24 hours: approximately 40%

## CNCCC(Oc1ccc(C(F)(F)F)cc1)c1ccccc1 (centres unmarked) [fluoxetine]
Malignant CLL cells
  ex vivo efficacy in killing malignant cells compared with approved cytotoxic drugs: ex vivo efficacy similar to that of the approved cytotoxic drugs
  ability of SSRIs to induce apoptosis in malignant CLL cells: induce apoptosis similarly to clinically approved cytotoxic drugs

## COCCCC/C(=N\OCCN)c1ccc(C(F)(F)F)cc1 [fluvoxamine]
Malignant CLL cells
  ability of SSRIs to induce apoptosis in malignant CLL cells: only 3 (paroxetine, fluoxetine, and sertraline) induce apoptosis similarly

## N=C(N)N/N=C/c1c(Cl)cccc1Cl [guanabenz]
Malignant CLL cells
  ex vivo efficacy in killing malignant cells compared with approved cytotoxic drugs: ex vivo efficacy similar to that of the approved cytotoxic drugs

## O=C1c2c(O)ccc(O)c2C(=O)c2c(NCCNCCO)ccc(NCCNCCO)c21 [mitoxantrone]
Malignant CLL cells; patients P1.0105, P2.0019 and P2.035, FIG. 4
  ex vivo patient response: extreme resistance ex vivo
Malignant CLL cells; [3]
  ex vivo efficacy (resistant / sensitive): resistant
Malignant CLL cells
  induction of apoptosis after 24 hours: ~50%

## COc1ccc2[nH]c([S+]([O-])Cc3ncc(C)c(OC)c3C)nc2c1 (centres unmarked) [omeprazole]
Malignant CLL cells; sample of one CLL patient, FIG. 12
  apoptotic rate (Annexin V positive cells) compared with cytotoxic agents: showed similar apoptotic rates as the cytotoxic agents

## Fc1ccc([C@@H]2CCNC[C@H]2COc2ccc3c(c2)OCO3)cc1 [paroxetine]
Malignant CLL cells
  ex vivo efficacy in killing malignant cells compared with approved cytotoxic drugs: ex vivo efficacy similar to that of the approved cytotoxic drugs
  ability of SSRIs to induce apoptosis in malignant CLL cells: induce apoptosis similarly to clinically approved cytotoxic drugs
Malignant CLL cells; approximately 30 μM, whole blood sample from a CLL patient, FIG. 7
  apoptosis in leukemic cells: ~100%
T and NK cells
  apoptosis in T and NK cells: 15%

## CN[C@H]1CC[C@@H](c2ccc(Cl)c(Cl)c2)c2ccccc21 [sertraline]
Malignant CLL cells
  ex vivo efficacy in killing malignant cells compared with approved cytotoxic drugs: ex vivo efficacy similar to that of the approved cytotoxic drugs
  induction of apoptosis after 24 hours: more than 90%
  ability of SSRIs to induce apoptosis in malignant CLL cells: induce apoptosis similarly to clinically approved cytotoxic drugs
Malignant CLL cells; CLL patient sample, sub-maximal dose of sertraline added to chlorambucil, upper curve of FIG. 11
  potentiation of chlorambucil-induced apoptosis: greatly enhanced the level of apoptosis
Malignant CLL cells; CLL sample, FIG. 28
  time to eliminate all malignant cells: ≤ 24 h
Malignant CLL cells; CLL sample, drug washed away, apoptosis measured at 24 or 48 hours, FIG. 28
  incubation with the sample required to induce maximal apoptosis: 30 min
[2]
  induction of active caspase-3: dramatically induced active caspase-3
MOLT-4 cells
  increase of the Apoptosis Index: up to 7 fold

## CN(C)C/C=C(/c1ccc(Br)cc1)c1cccnc1 [zimelidine]
Malignant CLL cells
  ability of SSRIs to induce apoptosis in malignant CLL cells: only 3 (paroxetine, fluoxetine, and sertraline) induce apoptosis similarly

## rituximab: antibody approved for CLL treatment
Malignant CLL cells; [3]
  ex vivo efficacy (resistant / sensitive): resistant
